For assay [1], the system named is 129S6/SvEv mice. Description: 3-shock contextual fear conditioning (CFC). The class given is in vivo. To be noted: for freezing during CFC training / freezing at re-exposure to the training context (learned fear) vs saline: male 129S6/SvEv; for freezing during CFC training: (R,S)-ketamine 30, prucalopride 3 or 10, PF-04995274 3 or 10 mg/kg, 1 week before CFC, vs saline; for freezing at re-exposure to the training context (learned fear) vs saline: single i.p. injection 1 week before CFC, re-exposure 5 days later. The method, then:
(§1) This chronic CORT elevation dysregulates the hypothalamic-pituitary-adrenal axis (HPA) in a manner similar to that observed in clinical depression. The dose and duration of CORT treatment was selected based on previous studies. CORT (35 μg/ml, equivalent to about 5 mg/kg/day) dissolved in 0.45% hydroxypropyl-o-cyclodextrin (0-CD) or vehicle (VEH) (0.45% j-CD) was available ad libitum in the drinking water in opaque bottles to protect it from light. VEH- and CORT-treated water was changed every 3 days to prevent possible degradation. Contextual Fear Conditioning (CFC): A 3-shock CFC procedure was administered as previously published. Briefly, mice were placed into context A and administered 3 2-s shocks (0.75 mA) at 180 s, 240 s or 300 s following placement into context A. Mice were removed from the context 15 s following the termination of shock (at 317 s). For context retrieval, mice were placed back into context A for 300 s. Electrophysiology: Electrophysiology was conducted as previously described. Statistical Analysis: Results from data analyses are expressed as means±SEM. Alpha was set to 0.05 for all analyses. Data were analyzed using GraphPad Prism v7.0 or v8.0. For all experiments, unless otherwise noted, one- or two-way ANOVAs with repeated-measures were applied to the data as appropriate. Significant main effects and/or interactions were followed by Fisher's PLSD post hoc analysis or unpaired t-tests. Drugs: All drugs were prepared in physiological saline and all injections were administered intraperitoneally (i.p.) in volumes of 0.1 cc per […] body weight unless otherwise noted. Fluoxetine hydrochloride (Flx): Flx (BioTrend Chemicals AG, BG197, Zurich, Germany) was administered in the drinking water (18 mg/kg/day) for 3 weeks before the start of CORT. […] (R,S)-ketamine (K): (R,S)-ketamine (Ketaset III, Ketamine HCl injection, Fort Dodge Animal Health, Fort Dodge, Iowa) was administered in a single dose at 30 mg/kg of body weight 1 week before the start of CFC. […] PF-04995274: PF-04995274 (Sigma, Catalog No. 1331782-27-4, St. Louis, Mo.) was administered a single dose at 3 or 10 mg/kg of body weight 1 week before the start of CFC. PF-04995274 was dissolved in saline using an ultrasonic homogenizer (BioLogics, Model 3000, Manassas, Va.). Osmotic minipump implantation: ALZET osmotic minipumps (Model 2004, […], 28 days) were implanted subcutaneously under isoflurane anesthesia as previously described [S2]. Osmotic minipumps were rotated under the skin two to three times per week. Behavioral Assays: All experiments were approved by the Institutional Animal Care and Use Committee (IACUC) at the New York Psychiatric Institute (NYSPI). Elevated Plus Maze (EPM): Testing was performed as previously described [S3]. Briefly, the maze is a plus-cross-shaped apparatus consisting of four arms, two open and two enclosed by walls, linked by a central platform at a height of 50 cm from the floor. Mice were individually placed in the center of the maze facing an open arm and were allowed to explore the maze for 5 min. The time spent in and the number of entries into the open arms was used as an anxiety index. Videos were scored using ANY-maze behavior tracking software (Stoelting, Wood Dale, Ill.). Novelty-Suppressed Feeding: The NSF is a conflict test that elicits competing motivations: the drive to eat and the fear of venturing into the center of a brightly lit arena. The latency to feed is used as an index of anxiety-like behavior, because classical anxiolytic drugs decrease this measure. The NSF test was carried out during an 8 min period as previously described [S3]. Briefly, the testing apparatus consisted of a plastic box (50×50×20 cm), the floor of which was covered with approximately 2 cm of bedding. For 129S6/SvEv experiments, mice were food restricted for 12 h. For the C57BL/6N experiments, mice were food restricted for 24 h. […]

For assay [2], the system named is 129S6/SvEv mice. The assay can be described thus: Forced swim test (FST) after CFC. The class given is in vivo. The conditions noted are these: for immobility, FST day 1 / immobility time, FST day 2 vs saline: male 129S6/SvEv; for immobility, FST day 1: (R,S)-ketamine 30, prucalopride 3 or 10, PF-04995274 3 or 10 mg/kg; for immobility time, FST day 2 vs saline: single injection 1 week before CFC. The method, then: as §1

The subject of the next assay is CA3 pyramidal cells. Description: Whole-cell voltage clamp recordings of spontaneous EPSCs in CA3 slices. The class given is cell-based, mice. The method, then: as §1
Setting [3] is: FIG. 4 cohort, Male, FIG. 4C, RMANOVA, Fisher's LSD.
The mark [4] stands for this setting: FIG. 4 cohort, Male, FIG. 4D, ANOVA, Fisher's LSD.
Where [5] appears, read: FIG. 4 cohort, Male, FIG. 4F, RMANOVA, Fisher's LSD.
Setting [6] is: FIG. 4 cohort, Male, FIG. 4G, ANOVA, Fisher's LSD.
[7] abbreviates: (R,S)-ketamine 30 mg/kg or prucalopride 3 mg/kg injected 1 week before slicing.

Molecules are shown by their SMILES.

As to `CNC1(c2ccccc2Cl)CCCCC1=O` (racemic) [(R,S)-ketamine], in the assay with 129S6/SvEv mice [1] (setting [3]), the “p, CFC Re-exposure Freezing (%), (R,S)-ketamine (30 mg/kg) vs. PF04995274 (3 mg/kg)” value was found to be 0.1027; the “p, CFC Re-exposure Freezing (%), (R,S)-ketamine (30 mg/kg) vs. PF04995274 (10 mg/kg)” value was found to be 0.8015; the “p, CFC Re-exposure Freezing (%), (R,S)-ketamine (30 mg/kg) vs. Prucalopride (3 mg/kg)” value was determined as 0.1343; the “p, CFC Re-exposure Freezing (%), (R,S)-ketamine (30 mg/kg) vs. Prucalopride (10 mg/kg)” value worked out at 0.1023. The “p, CFC Re-exposure Freezing (%), Saline vs. (R,S)-ketamine” value in the assay with 129S6/SvEv mice [1] (setting [3]) is 0.0448. Also, in the assay on 129S6/SvEv mice [1] (setting [4]), the “p, CFC Re-exposure, (R,S)-ketamine (30 mg/kg) vs. PF04995274 (3 mg/kg)” value worked out at 0.1027; the “p, CFC Re-exposure, (R,S)-ketamine (30 mg/kg) vs. PF04995274 (10 mg/kg)” value is listed as 0.8015; the “p, CFC Re-exposure, (R,S)-ketamine (30 mg/kg) vs. Prucalopride (3 mg/kg)” value was found to be 0.1343; the “p, CFC Re-exposure, (R,S)-ketamine (30 mg/kg) vs. Prucalopride (10 mg/kg)” value came out at 0.1023. Moreover, the “p, CFC Re-exposure, Saline vs. (R,S)-ketamine” value in the assay on 129S6/SvEv mice [1] (setting [4]) came out at 0.0448. Also, the “freezing during CFC training” value in the assay on 129S6/SvEv mice [1] was “comparable levels of freezing”. In addition, the “freezing at re-exposure to the training context (learned fear) vs saline” value with 129S6/SvEv mice [1] (30 mg/kg) is on record as “attenuated learned fear”. Besides, in the assay on 129S6/SvEv mice [2] (setting [5]), the “p, FST Day 2 Immobility Time (sec), (R,S)-ketamine (30 mg/kg) vs. PF04995274 (3 mg/kg)” value is on record as 0.4094; the “p, FST Day 2 Immobility Time (sec), (R,S)-ketamine (30 mg/kg) vs. PF04995274 (10 mg/kg)” value is given as 0.3813; the “p, FST Day 2 Immobility Time (sec), (R,S)-ketamine (30 mg/kg) vs. Prucalopride (3 mg/kg)” value was found to be 0.8332; the “p, FST Day 2 Immobility Time (sec), (R,S)-ketamine (30 mg/kg) vs. Prucalopride (10 mg/kg)” value was found to be 0.1712. For the same compound, in the assay on 129S6/SvEv mice [2] (setting [5]), the “p, FST Day 2 Immobility Time (sec), Saline vs. (R,S)-ketamine (30 mg/kg)” value was found to be 0.0218. Also, in the assay on 129S6/SvEv mice [2] (setting [6]), the “p, FST Day 2 Immobility Time (min 3-6) (sec), (R,S)-ketamine (30 mg/kg) vs. PF04995274 (3 mg/kg)” value was 0.5815; the “p, FST Day 2 Immobility Time (min 3-6) (sec), (R,S)-ketamine (30 mg/kg) vs. PF04995274 (10 mg/kg)” value was 0.3207; the “p, FST Day 2 Immobility Time (min 3-6) (sec), (R,S)-ketamine (30 mg/kg) vs. Prucalopride (3 mg/kg)” value was determined as 0.8478; the “p, FST Day 2 Immobility Time (min 3-6) (sec), (R,S)-ketamine (30 mg/kg) vs. Prucalopride (10 mg/kg)” value is on record as 0.1763. Moreover, the “p, FST Day 2 Immobility Time (min 3-6) (sec), Saline vs. (R,S)-ketamine (30 mg/kg)” value in the assay with 129S6/SvEv mice [2] (setting [6]) came to 0.0330. The “immobility, FST day 1” value in the assay with 129S6/SvEv mice [2] was “comparable levels of immobility”. The “immobility time, FST day 2 vs saline” value in the assay on 129S6/SvEv mice [2] (30 mg/kg) is given as “decreased immobility time”. In the assay with CA3 pyramidal cells (setting [7]), the “average EPSC amplitude vs saline” value is “no differences”, the “large AMPA receptor-mediated bursts of EPSCs” value was “not present” and the “number of EPSCs vs saline” value is given as “no differences”.

For `NS(=O)(=O)c1cccc2c1c([N+](=O)[O-])cc1nc(O)c(O)nc12` [NBQX, 2,3-dihydroxy-6-nitro-7-sulfamoyl-benzo[f]quinoxaline], the “large bursts of EPSCs in saline-treated mice” value in the assay with CA3 pyramidal cells (NBQX 20 μM added to bath) is reported as “completely blocked”.

For the compound `OC1(CN2CCC(COc3noc4cccc(OC5CCOC5)c34)CC2)CCOCC1` (stereo not shown) [PF-04995274], in the assay on 129S6/SvEv mice [1] (setting [3]), the “p, CFC Re-exposure Freezing (%), PF04995274 (3 mg/kg) vs. PF04995274 (10 mg/kg)” value is 0.0619; the “p, CFC Re-exposure Freezing (%), Saline vs. PF04995274 (3 mg/kg)” value was 0.6871; the “p, CFC Re-exposure Freezing (%), Saline vs. PF04995274 (10 mg/kg)” value was found to be 0.0255. Besides, in the assay on 129S6/SvEv mice [1] (setting [4]), the “p, CFC Re-exposure, PF04995274 (3 mg/kg) vs. PF04995274 (10 mg/kg)” value was 0.0619; the “p, CFC Re-exposure, Saline vs. PF04995274 (3 mg/kg)” value was 0.6871; the “p, CFC Re-exposure, Saline vs. PF04995274 (10 mg/kg)” value is given as 0.0255. Further, the “freezing during CFC training” value in the assay on 129S6/SvEv mice [1] is recorded as “comparable levels of freezing”. In addition, in the assay on 129S6/SvEv mice [1] (10 mg/kg), the “freezing at re-exposure to the training context (learned fear) vs saline” value is on record as “attenuated learned fear”. Also, in the assay on 129S6/SvEv mice [2] (setting [5]), the “p, FST Day 2 Immobility Time (sec), PF04995274 (3 mg/kg) vs. PF04995274 (10 mg/kg)” value amounted to 0.0941; the “p, FST Day 2 Immobility Time (sec), Saline vs. PF04995274 (3 mg/kg)” value was 0.1259; the “p, FST Day 2 Immobility Time (sec), Saline vs. PF04995274 (10 mg/kg)” value is 0.0023. For the same compound, in the assay with 129S6/SvEv mice [2] (setting [6]), the “p, FST Day 2 Immobility Time (min 3-6) (sec), Saline vs. PF04995274 (3 mg/kg)” value was 0.1050 and the “p, FST Day 2 Immobility Time (min 3-6) (sec), Saline vs. PF04995274 (10 mg/kg)” value is reported as 0.0027. Besides, the “immobility, FST day 1” value in the assay with 129S6/SvEv mice [2] is recorded as “comparable levels of immobility”. In addition, the “immobility time, FST day 2 vs saline” value in the assay with 129S6/SvEv mice [2] (10 mg/kg) is “decreased immobility time”.

(Values after patent publication US20220031684A1, “PROPHYLACTIC EFFICACY OF SEROTONIN 4 RECEPTOR AGONISTS AGAINST STRESS” (THE TRUSTEES OF COLUMBIA UNIVERSITY IN THE CITY OF NEW YORK, priority 2019, published 2022).)
